Measured values as given in patent US12156860B2, “Disorders implicating PUFA oxidation” (BioJiva LLC, priority 2011, dated 2024).

Tests used:
[1] = tested on: coq null mutants (Q-less yeast); settings: for protection in the yeast model: compared with D4-linolenic acid; for viability of coq null mutants after fatty acid treatment: 200 μM fatty acid, plate dilution / colony assay
Description: FIG. 3. […] Yeast coq3, coq7 and coq9 null mutants were prepared in the W303 yeast genetic background (WT). Yeast strains were grown in YPD medium (1% Bacto-yeast extract, 2% Bacto-peptone, 2% dextrose) and harvested while in log phase growth (OD600 nm=0.1-1.0). Cells were washed twice with sterile water and resuspended in phosphate buffer (0.10 M sodium phosphate, pH 6.2, 0.2% dextrose) to an OD600 nm=0.2. Samples were removed and 1:5 serial dilutions starting at 0.20 OD/ml were plated on YPD plate medium, to provide a zero time untreated control (shown in top left panel). The designated fatty acids were added to 200 μM final concentration to 20 ml of yeast in phosphate buffer. At 2 h, 4 h, and 16 h samples were removed, 1:5 serial dilutions prepared, and spotted onto YPD plate medium. Pictures were taken after 2 days of growth at 30° C.
FIG. 4. […] The fatty acid sensitive assay was performed as described in FIG. 3, except that 100 μl aliquots were removed at 1, 2, and 4 h and, following dilution, spread onto YPD plates. Pictures were taken after 2 to 2.5 days, and the number of colonies counted. Yeast strains include Wild type (circles), atp2 (triangles), or coq3 (squares); Fatty acid treatments include oleic C18:1 (solid line), linolenic, C18:3, n-3 (dashed line) or 11,11,14,14-D4-linolenic, C18:3, n-3, (dotted line).
Q-less yeast (coq mutants) provide an ideal system to assess in vivo autoxidation of fatty acids. Coenzyme Q (ubiquinone or Q) serves as a small lipophilic antioxidant as well as an electron shuttle in the respiratory chain of the mitochondrial inner membrane. Ten S. cerevisiae genes (COQ1-COQ10) are required for coenzyme Q biosynthesis and function, and the deletion of any results in respiratory deficiency (Tran U C, Clarke C F. Mitochondrion 2007; 7S, 562).
A plate dilution assay can be used to assess PUFA sensitivity. This assay can be performed by spotting serial five-fold dilutions of aliquots onto YPD plate media (FIG. 3). The sensitivity of the different strains can be observed by visual inspection of the density of cells in each spot.

[2] = cited from earlier work
[3] = tested on: coq null mutants (Q-less yeast); settings: cited from earlier work; for sensitivity of Q-less yeast to fatty acid treatment: compared with wild-type parental strain
[4] = tested on: wild-type (W303-1B) yeast cells; settings: four hour treatment; cited from earlier work
WT (W303) yeast = settings: 200 μM, 4 h incubation
Description: Uptake of exogenously supplied fatty acids by yeast. WT (W303) yeast were harvested at log phase and incubated in the presence of 200 μM of the designated fatty acid for either 0 or 4 h.
Wild-type yeast were harvested during log phase growth and incubated in the presence of exogenously added fatty acid (for 0 or 4 h) in the presence of phosphate buffer plus 0.20% dextrose, as described for the fatty acid sensitivity assay. Cells were harvested, washed twice with 10 ml sterile water, and the yeast cell pellets were then processed by alkaline methanolysis as described above. The fatty acids are detected as methylesters (FAMEs) following GC-MS with C17:0 added as an internal standard (FIG. 6).

Q-less coq3 yeast = test: Yeast incubated with different ratios of H- and D-PUFA, plate dilution; assay type: cell-based, S. cerevisiae; settings: after 3 hours of treatment, data not shown
Description: FIG. 9. […] Wild-type, yeast Q-less coq3, or respiratory deficient cor1 null mutants were incubated in the presence of 200 μM of LA and D2-LA at different ratios of PUFAs. Serial dilutions (1:5) starting at 0.2 OD/ml were spotted on YPD solid plate medium. A zero-time untreated control is shown on the top left. Growth at 30° C.
FIG. 10. […] Serial dilutions (1:5) starting at 0.2 OD/ml were spotted on YPD solid plate medium. Growth at 30° C.
Wild-type, yeast Q-less coq3, or respiratory deficient cor1 null mutants were incubated in the presence of 200 μM of LA and D2-LA at different ratios of PUFAs, as indicated in FIG. 9. Serial dilutions (1:5) starting at 0.2 OD/ml were spotted on YPD solid plate medium. […] Growth was at 30° C.
Serial dilutions (1:5) starting at 0.2 OD/ml were spotted on YPD solid plate medium. Growth was at 30° C.

[5] = tested on: stroke-prone spontaneously hypertensive (SHRSP) rat; test: SHRSP rat model of hypertension; assay type: in vivo; settings: SHRSP rats, 8 weeks
Source text: The stroke-prone spontaneously hypertensive (SHRSP) rat model of hypertension, which has been previously described (McIntyre et al., 1997 Hypertension 30:1517; Alexander et al., 1999 Cardiovasc. Res. 43:798; Fennell et al., 2002 Gene Ther. 9:110), can be used for the assessment of a compound's ability to mitigate hypertension.

rat hearts = test: Langendorf isolated heart perfusion model, echo- and electrocardiography; assay type: in vivo; settings: rats, 8 weeks supplementation
Description: Test compounds disclosed herein can also be assessed using the Langendorf isolated heart perfusion model. […] Following the treatment period, rat hearts are analyzed by echocardiography for measurement of muscle thickness of the left ventricle, left atrium, right ventricle, and right atrium and electrocardiography for measuring electrical activity. After live evaluation, rats are humanely sacrificed and their hearts isolated and connected to the Langendorf isolated perfusion system (See Jennings et al., Am. Surg. 2004; 70(9), 797-800). Left ventricular pressure is then measured with a left ventricular balloon. Coronary flow is also measured. Cardiac function is further assessed by determining the effect of administration of test compounds on the rate of contraction and relaxation of the heart. To determine whether any observed effects on cardiac function are due to the effect of the test compound on mitochondrial function, mitochondrial activity pre-ischemia and post-ischemia is assessed for each of the treatment groups.

NASH (MCD diet) rats = test: NASH induced by methionine and choline deficient diet; assay type: in vivo, Rattus norvegicus, Wistar; settings: daily over three months
Description: (§1) Fifty male heterozygous rats, 45-days-old, from the Rattus norvegicus species and Wistar lineage are kept in polypropylene cages, in groups of five animals, under a 12 h-clear/dark cycle and under controlled temperature conditions. The induction of NASH is carried out through a diet deficient in methionine and choline (MCD) according to known procedures (See Rogers A E, Newberne P M. Alcoholic and nutritional fatty liver and cirrhosis. Am J Pathol. 1973; 73:817-20). […] During the study period, the animals are weighed on a weekly basis and the drugs dose is readjusted as necessary. On the first day of the study, besides determining the animals' weight, their blood is collected through retro-orbital plexus puncture for biochemical analysis: alanine-aminotransferase (ALT) and aspartate-aminotransferase (AST) (colorimetric test, using the Labtest kit). One day after concluding the induction period and compound administration (90 days), animals are sacrificed by decapitation. Once more, each animal's blood is collected for biochemical analysis. Then, laparotomy with total hepatectomy and liver preparation are carried out for lipoperoxidation (LPO) and histological analysis. Liver tissue samples are analyzed using the thiobarbituric-acid reactant substance (TBARS) measurement according to known methods (See Lowry et al. Protein measurement with the folin phenol reagent. J Biol Chem. 1951; 193:265-75) and the results are expressed in nmol of malondialdehyde/mg of protein. Slides with liver fragments are also dyed with hematoxilin-eosine and picrosirius, in order to evaluate the fibrosis level, and with Perls to evaluate the presence of iron stores, having been examined by an only pathologist blinded to the animals' data. The minimum histological criterion for NASH diagnosis is the presence of hepatocellular ballooning-related steatosis, involving zone 3 and lobular inflammatory infiltrate. Mallory corpuscles and sinusoidal fibrosis, involving zone 3 might be present or not. The graduation of both necroinflammatory and fibrosis activity is carried out according to known classifications (See Brunt E M, Janney C G, Di Bisceglie A M, Neuschwander-Tetri B A, Bacon B R. Nonalcoholic steatohepatitis: a proposal for grading and staging the histological lesions. Am J Gastroenterol. 1999; 94:2467-74).

[6] = tested on: alcoholic liver disease rats; test: Alcoholic liver disease and cirrhosis induced by 5% ethanol diet; assay type: in vivo, Rattus norvegicus, Wistar; settings: 5% ethanol diet rats, daily over three months
Description: as §1, with “alcoholic liver disease and cirrhosis” for “NASH”, “containing 5% ethanol […].” for “deficient in methionine and choline (MCD) according to known procedures (See Rogers A E, Newberne P M. Alcoholic and nutritional fatty liver and cirrhosis. Am J Pathol. 1973; 73:817-20).”, “days), the” for “days),”, “data.” for “data. The minimum histological criterion for NASH diagnosis is the presence of hepatocellular ballooning-related steatosis, involving zone 3 and lobular inflammatory infiltrate. Mallory corpuscles and sinusoidal fibrosis, involving zone 3 might be present or not. The graduation of both necroinflammatory and fibrosis activity is carried out according to known classifications (See Brunt E M, Janney C G, Di Bisceglie A M, Neuschwander-Tetri B A, Bacon B R. Nonalcoholic steatohepatitis: a proposal for grading and staging the histological lesions. Am J Gastroenterol. 1999; 94:2467-74).”

[7] = Kinetics of O2 consumption during AMVN-initiated oxidation in chlorobenzene (glass capillary microvolumeter); assay type: physicochemical
Description: FIG. 7. Kinetics of O2 consumption accompanied the oxidation of 0.71 M LA (plots 1 and 2) and 0.71 M D2-LA (plot 3) in chlorobenzene initiated by 40 mM AMVN at 37° C. Plot 2-0.23 mM HPMC was added to 0.71 M LA.
The kinetics of oxygen consumption during the oxidation of LA and D2-LA was studied with a glass capillary microvolumeter (FIG. 7). The rate of oxidation, ROX, was measured as a slope of [O2] traces. The rate of initiation, RIN, was determined by the inhibitor method with HPMC (“6-hydroxy-2,2,5,7,8-pentamethylbenzochroman”) as a reference inhibitor. RIN was calculated from the induction period of inhibited oxidation, tIND: RIN=2·[HPMC]/tIND. […] When the process was inhibited by 0.23 mM chain-breaking antioxidant HPMC, the duration of the induction period, tIND, was about 48 min, with the RIN value of around 0.16×10^−6 M/s. […] The latter precludes a direct determination of RIN. […] An estimated kinetic isotope effect (“KIE”), from comparison of ROX for LA and D2-LA, was around 6.1×10^−6/0.18×10^−6≈35. A similar KIE was determined during the oxidation of LA and 11,11-d2-LA in Triton X-100 aqueous micelles (data not shown). For comparative purposes, the theoretical KIE is 6.9 at 25° C. See Carpenter, “Determination of Organic Reaction Mechanisms” (John Wiley & Sons, 1984), p. 89.

Structure (SMILES): [2H]C([2H])(/C=C\C/C=C\CC)C/C=C\CCCCCCC(=O)O [11, 11-D2-linolenic acid, 11,11-Dideutero-cis,cis,cis-octadeca-8,12,15-trienoic acid]
- protection in the yeast model [1]: comparable protection

Structure (SMILES): [2H]C([2H])(/C=C\CC)/C=C\CC/C=C\CCCCCCC(=O)O [14, 14-D2-linolenic acid, 14,14-Dideutero-cis,cis,cis-octadeca-8,12,15-trienoic acid]
- protection in the yeast model [1]: comparable protection

Structure (SMILES): [2H]O[2H] [heavy water, D2O]
- amount a 70 kg person might drink without serious consequences [2]: 4.8 L

Structure (SMILES): CC/C=C\C/C=C\C/C=C\CCCCCCCC(=O)O [linolenic acid, cis,cis,cis-9,12,15-Octadecatrienoic acid, reference compound]
- viable Q-less (coq2, coq3, and coq5) yeast mutants ([3]; following a four hour treatment): Less than 1%
- viability of coq null mutants after fatty acid treatment [1]: dramatic loss of viability
- wild-type cells remaining viable [4]: 70%
- incorporation of fatty acid by yeast (WT (W303) yeast): avidly incorporate

Structure (SMILES): CCCCCCCC/C=C\CCCCCCCC(=O)O [oleic acid]
- sensitivity of Q-less yeast to fatty acid treatment [3]: behave the same as the wild-type parental strain

Structure (SMILES): [2H]C(/C=C\CCCCC)/C=C\CCCCCCCC(=O)O (stereo not shown) [11,11-D,H-LA, [11^−2 H]-linoleic acid]
- cell viability (Q-less coq3 yeast): no detectable loss in cell viability

Structure (SMILES): [2H]C([2H])(/C=C\CC)/C=C\C([2H])([2H])/C=C\CCCCCCCC(=O)O [D4-linolenic acid, 11,11,14,14-Tetradeutero-cis,cis,cis-9,12,15-Octadecatrienoic acid]
- systolic blood pressure [5]: reduction in systolic blood pressure
- viability of coq null mutants after fatty acid treatment [1]: resistant to PUFA-mediated cell killing
- viability of cells compared with oleic acid treatment ([1]; quantitative colony counting (FIG. 4)): similar
- symptoms and markers associated with cardiac disorders (rat hearts): reduce symptoms and markers associated with cardiac disorders
- amount of MDA in liver samples (TBARS) (NASH (MCD diet) rats): reduce the amount of MDA found in liver samples
- histological signs of NASH (NASH (MCD diet) rats): reverse the histological signs of NASH
- incorporation of fatty acid by yeast (WT (W303) yeast): avidly incorporate
- amount of MDA in liver samples (TBARS) [6]: reduce the amount of MDA found in liver samples
- histological signs of fatty liver disease [6]: reverse the histological signs of fatty liver disease

Structure (SMILES): CCCCC/C=C\C/C=C\C/C=C\C/C=C\CCCC(=O)O [arachidonic acid]
- sensitivity of Q-less yeast to fatty acid treatment [3]: hypersensitive

Structure (SMILES): CCCCC/C=C\C/C=C\CCCCCCCC(=O)O [LA, cis,cis-9,12-Octadecadienoic acid, reference compound]
- rate of oxidation, ROX ([7]; 0.71 M in chlorobenzene, 40 mM AMVN, 37° C.): 6.1e-06 M/s
- length of the kinetic chain, ROX/RIN ([7]; for D2-LA assuming RIN comparable to that of LA): 38±3
- oxidizability ([7]; n=5): 0.0215±0.008 M^−0.5 s^−0.5
